Test results: article PMC10487658, “Identification and Characterization of RK22, a Novel Antimicrobial Peptide from Hirudinaria manillensis against Methicillin Resistant Staphylococcus aureus” (International Journal of Molecular Sciences, 2023)
Where two headings read alike, the source gives them in different places. No end group written: not given here.

Tests used:
C57BL/6 mice = type: in vivo, mouse; conditions: male C57BL/6 mice, 96 h; for survival: n = 8
Method: Male C57BL/6 mice (6–8 weeks of age) were randomly divided into three groups of eight mice per group. Either normal saline or RK22 (20 and 40 mg/kg) was injected intravenously via the tail vein. […] For histopathological analysis, sections of lung, liver, spleen, and kidney were fixed with 4% paraformaldehyde, embedded in paraffin wax, and stained with hematoxylin and eosin (H&E).
Figure S2. In vivo acute toxicity of RK22. Male C57BL/6 mice (6–8 weeks of age, n = 8 /group) were injected intravenously via the tail vein with saline or RK22 (20 and 40 mg/kg). Mice were observed for survival status within 96 h of the injection (A) and blood was collected via retro-orbital bleeding for routine blood analysis (B-E). The sections of lung, liver, spleen and kidney were stained […]
(1 picture or pasted object on this page, not shown here)

P. aeruginosa, ATCC9027 = type: cell-based, Pseudomonas aeruginosa; conditions: P. aeruginosa ATCC9027 in Table 3; RPMI 1640, 37 °C, 12–16 h, absorbance at 600 nm
HEK293T cells = experiment: Cytotoxicity assay (CCK8); type: cell-based; conditions: up to 400 μg/mL, 24 h, CCK8, absorbance 450 nm, 3 independent experiments
Method: In the cytotoxicity assay, HEK293T cells were cultured with Dulbecco’s Modified Eagle Medium (DMEM) (Corning, New York, NY, USA) consisting of 10% fetal bovine serum (FBS, Corning, New York, NY, USA) and 1% penicillin-streptomycin liquid (Solarbio, Beijing, China). After digestion using trypsin (Gibco, New York, NY, USA), the cell suspension (100 μL, 1 × 10^5 cells/mL, […]) was inoculated into each well of a 96-well plate. Once the cells were completely adherent, the supernatant was discarded, and fresh medium with or without 100 μL of RK22 (final concentration 6.25–400 μg/mL) was added to the 96-well plates. […] The plate was then incubated at 37 °C for an additional 1–4 h, with absorbance then measured at 450 nm. […]
Figure S1. […] After incubation for 60 min at 37°C, cells were centrifuged (3,500 rpm, 5 min) and the absorbance of the supernatant was measured at 540 nm. The value for “zero hemolysis” was determined using sterile saline (negative control, NC), while 100% hemolysis was established using 1% (v/v) Triton X-100 (PC: positive control). Hemolysis of testing sample was calculated as the percentage of Triton X-100-induced hemolysis. […] Cell viability was determined by adding 10 μl CCK8 in to the cells and incubated for 1-4 h. The absorbance at 450 nm of the solution was measured with a microplate reader. […]

For RKYKEKKDKSQNKKKKRKCMIL [RK22], the “hemoglobin (HGB)” value (C57BL/6 mice; 20 and 40 mg/kg iv) was “did not induce any changes”, the “histopathological analysis (H&E) of lung, liver, spleen and kidney” value (C57BL/6 mice; 20 and 40 mg/kg iv) was “no obvious tissue injury” and the platelets (C57BL/6 mice; 20 and 40 mg/kg iv) was “did not induce any changes”. The red blood cells (C57BL/6 mice; 20 and 40 mg/kg iv) was “did not induce any changes”, the white blood cells (C57BL/6 mice; 20 and 40 mg/kg iv) was “did not induce any changes” and the survival (C57BL/6 mice; single dose 20 mg/kg intravenously via the tail vein) was “did not result in any fatalities”. The survival (C57BL/6 mice; single dose 40 mg/kg intravenously via the tail vein) was “did not result in any fatalities”, the MIC (P. aeruginosa, ATCC9027) was >100 µg/mL and the cytotoxicity (HEK293T cells) was “did not demonstrate any noticeable cytotoxic effects”.
